Data taken from US9980943B2, “Methods of treating muscular dystrophy” (BOARD OF REGENTS OF THE NEVADA SYSTEM OF HIGHER EDUCATION, …, priority 2013, dated 2018).

How the values were obtained:
Assay type in all cases: cell-based, mouse
[1] = test system: α7 integrin (LacZ reporter in α7βgal+/− myoblasts); assay: Myoblast α7+/LacZ integrin FDG assay (Burkin assay in myoblasts, 96-well); settings: α7+/LacZ myoblasts, 96-well
[2] = test system: α7 integrin (LacZ reporter in α7+/LacZ myotubes); assay: Myotube α7 integrin FDG assay (Burkin assay in myotubes, 96-well); settings: myotubes
[3] = test system: β-galactosidase in CMV-LacZ C2C12 myotubes; assay: CMV-LacZ secondary screen in C2C12 myotubes (β-Gal stabilizing assay); settings: for CMV-LACZ in Myotubes, signal relative to DMSO: C2C12 CMV-LacZ myotubes, fold relative to DMSO; for CMV-LACZ in Myotubes (β-galactosidase activity relative to DMSO): CMV-LacZ C2C12 myotubes, 96-well format
Method in brief: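 First, C2C12 myoblasts were transfected with a linearized CMV-LACZ vector and clonal lines selected by FDG β-gal assay. Then cells were exposed to compounds at 0.5, 1, 5, 10, 20 and 40 μM in 96-well format, two replicates each, and β-gal measured.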

## O=C(O)CCCNC(=O)CCn1nnc2ccccc2c1=O [MLS000806880-01]
[1]; 0.5 uM
  Burkin Assay in Myoblasts, signal relative to DMSO: 1.097
[1]; 1 uM
  Burkin Assay in Myoblasts, signal relative to DMSO: 1.129
[1]; 5 uM
  Burkin Assay in Myoblasts, signal relative to DMSO: 1.009
[1]; 10 uM
  Burkin Assay in Myoblasts, signal relative to DMSO: 0.9524
[1]; 20 uM
  Burkin Assay in Myoblasts, signal relative to DMSO: 0.9957
[1]; 40 uM
  Burkin Assay in Myoblasts, signal relative to DMSO: 1.056
[2]; 0.5 uM
  Burkin Assay in Myotubes, α7 integrin LacZ reporter signal relative to DMSO: 0.735
[2]; 1 uM
  Burkin Assay in Myotubes, α7 integrin LacZ reporter signal relative to DMSO: 0.8731
[2]; 5 uM
  Burkin Assay in Myotubes, α7 integrin LacZ reporter signal relative to DMSO: 0.9094
[2]; 10 uM
  Burkin Assay in Myotubes, α7 integrin LacZ reporter signal relative to DMSO: 0.996
[2]; 20 uM
  Burkin Assay in Myotubes, α7 integrin LacZ reporter signal relative to DMSO: 1.057
[2]; 40 uM
  Burkin Assay in Myotubes, α7 integrin LacZ reporter signal relative to DMSO: 0.9353
[3]; 5 uM
  CMV-LACZ in Myotubes, signal relative to DMSO: 0.9654
[3]; 10 uM
  CMV-LACZ in Myotubes, signal relative to DMSO: 1.13
[3]; 20 uM
  CMV-LACZ in Myotubes, signal relative to DMSO: 0.9145
[3]; 40 uM
  CMV-LACZ in Myotubes, signal relative to DMSO: 1.0655

## CCOCCCN1C(=O)CN(C2CCCCCC2)C(=O)C1c1ccc(OC)cc1 (stereo not shown) [MLS000046123-01]
[1]; 0.5 uM
  Burkin Assay in Myoblasts, value relative to DMSO: 1.049
[1]; 1 uM
  Burkin Assay in Myoblasts, value relative to DMSO: 0.9808
[1]; 5 uM
  Burkin Assay in Myoblasts, value relative to DMSO: 0.9565
[1]; 10 uM
  Burkin Assay in Myoblasts, value relative to DMSO: 1.007
[1]; 20 uM
  Burkin Assay in Myoblasts, value relative to DMSO: 1.002
[1]; 40 uM
  Burkin Assay in Myoblasts, value relative to DMSO: 0.9894
[2]; 0.5 uM
  Burkin Assay in Myotubes (signal relative to DMSO): 0.9802
[2]; 1 uM
  Burkin Assay in Myotubes (signal relative to DMSO): 0.9389
[2]; 5 uM
  Burkin Assay in Myotubes (signal relative to DMSO): 0.8905
[2]; 10 uM
  Burkin Assay in Myotubes (signal relative to DMSO): 0.865
[2]; 20 uM
  Burkin Assay in Myotubes (signal relative to DMSO): 0.9268
[2]; 40 uM
  Burkin Assay in Myotubes (signal relative to DMSO): 0.9203
[3]; 5 uM
  CMV-LACZ in Myotubes, signal relative to DMSO: 0.9124
[3]; 10 uM
  CMV-LACZ in Myotubes, signal relative to DMSO: 1.084
[3]; 20 uM
  CMV-LACZ in Myotubes, signal relative to DMSO: 1.145
[3]; 40 uM
  CMV-LACZ in Myotubes, signal relative to DMSO: 1.076

## CS(=O)(=O)Cc1cccc(C(=O)NN(c2ccccc2)c2ccccc2)c1 [MLS001175473-01]
[1]; 0.5 uM
  Burkin Assay in Myoblasts, value relative to DMSO: 0.5331
[1]; 1 uM
  Burkin Assay in Myoblasts, value relative to DMSO: 0.3721
[1]; 5 uM
  Burkin Assay in Myoblasts, value relative to DMSO: 0.8732
[1]; 10 uM
  Burkin Assay in Myoblasts, value relative to DMSO: 0.8715
[1]; 20 uM
  Burkin Assay in Myoblasts, value relative to DMSO: 0.899
[1]; 40 uM
  Burkin Assay in Myoblasts, value relative to DMSO: 0.8698
[2]; 0.5 uM
  Burkin Assay in Myotubes (signal relative to DMSO): 0.9556
[2]; 1 uM
  Burkin Assay in Myotubes (signal relative to DMSO): 0.9177
[2]; 5 uM
  Burkin Assay in Myotubes (signal relative to DMSO): 0.8872
[2]; 10 uM
  Burkin Assay in Myotubes (signal relative to DMSO): 0.9977
[2]; 20 uM
  Burkin Assay in Myotubes (signal relative to DMSO): 1.041
[2]; 40 uM
  Burkin Assay in Myotubes (signal relative to DMSO): 0.7971
[3]; 5 uM
  CMV-LACZ in Myotubes (β-galactosidase activity relative to DMSO): 0.8962
[3]; 10 uM
  CMV-LACZ in Myotubes (β-galactosidase activity relative to DMSO): 0.8587
[3]; 20 uM
  CMV-LACZ in Myotubes (β-galactosidase activity relative to DMSO): 0.9592
[3]; 40 uM
  CMV-LACZ in Myotubes (β-galactosidase activity relative to DMSO): 1.066

## Cc1cc(C)cc(-n2nnc(C(=O)NCc3ccccc3Cl)c2N)c1 [MLS000094770-01]
[1]; 0.5 uM
  Burkin Assay in Myoblasts, value relative to DMSO: 1.021
[1]; 1 uM
  Burkin Assay in Myoblasts, value relative to DMSO: 0.9676
[1]; 5 uM
  Burkin Assay in Myoblasts, value relative to DMSO: 0.9491
[1]; 10 uM
  Burkin Assay in Myoblasts, value relative to DMSO: 0.9866
[1]; 20 uM
  Burkin Assay in Myoblasts, value relative to DMSO: 0.7999
[1]; 40 uM
  Burkin Assay in Myoblasts, value relative to DMSO: 0.6762
[2]; 0.5 uM
  Burkin Assay in Myotubes (signal relative to DMSO): 1.14
[2]; 1 uM
  Burkin Assay in Myotubes (signal relative to DMSO): 1
[2]; 5 uM
  Burkin Assay in Myotubes (signal relative to DMSO): 1.317
[2]; 10 uM
  Burkin Assay in Myotubes (signal relative to DMSO): 0.823
[2]; 20 uM
  Burkin Assay in Myotubes (signal relative to DMSO): 0.8175
[2]; 40 uM
  Burkin Assay in Myotubes (signal relative to DMSO): 0.7119
[3]; 5 uM
  CMV-LACZ in Myotubes, signal relative to DMSO: 0.8081
[3]; 10 uM
  CMV-LACZ in Myotubes, signal relative to DMSO: 0.9406
[3]; 20 uM
  CMV-LACZ in Myotubes, signal relative to DMSO: 0.9412
[3]; 40 uM
  CMV-LACZ in Myotubes, signal relative to DMSO: 0.8421

## CCOc1ccc(-n2c(C)c(C(=O)O)c3cc(OC)ccc32)cc1 [MLS001194551-01]
[1]; 0.5 uM
  Burkin Assay in Myoblasts, value relative to DMSO: 1.096
[1]; 1 uM
  Burkin Assay in Myoblasts, value relative to DMSO: 1.205
[1]; 5 uM
  Burkin Assay in Myoblasts, value relative to DMSO: 1.115
[1]; 10 uM
  Burkin Assay in Myoblasts, value relative to DMSO: 1.297
[1]; 20 uM
  Burkin Assay in Myoblasts, value relative to DMSO: 1.176
[1]; 40 uM
  Burkin Assay in Myoblasts, value relative to DMSO: 1.392
[2]; 0.5 uM
  Burkin Assay in Myotubes (signal relative to DMSO): 1.0169
[2]; 1 uM
  Burkin Assay in Myotubes (signal relative to DMSO): 1.01
[2]; 5 uM
  Burkin Assay in Myotubes (signal relative to DMSO): 1.043
[2]; 10 uM
  Burkin Assay in Myotubes (signal relative to DMSO): 1.094
[2]; 20 uM
  Burkin Assay in Myotubes (signal relative to DMSO): 1.209
[2]; 40 uM
  Burkin Assay in Myotubes (signal relative to DMSO): 1.281
[3]; 5 uM
  CMV-LACZ in Myotubes, signal relative to DMSO: 0.8273
[3]; 10 uM
  CMV-LACZ in Myotubes, signal relative to DMSO: 0.9459
[3]; 20 uM
  CMV-LACZ in Myotubes, signal relative to DMSO: 1.047
[3]; 40 uM
  CMV-LACZ in Myotubes, signal relative to DMSO: 0.7809

## CC(=O)Nc1nonc1-c1nc2ccccc2n1CCC(C)C [MLS000085522-01]
[1]; 0.5 uM
  Burkin Assay in Myoblasts, signal relative to DMSO: 0.9927
[1]; 1 uM
  Burkin Assay in Myoblasts, signal relative to DMSO: 0.872
[1]; 5 uM
  Burkin Assay in Myoblasts, signal relative to DMSO: 1.118
[1]; 10 uM
  Burkin Assay in Myoblasts, signal relative to DMSO: 0.9531
[1]; 20 uM
  Burkin Assay in Myoblasts, signal relative to DMSO: 0.9728
[1]; 40 uM
  Burkin Assay in Myoblasts, signal relative to DMSO: 0.7481
[2]; 0.5 uM
  Burkin Assay in Myotubes, α7 integrin LacZ reporter signal relative to DMSO: 0.9622
[2]; 1 uM
  Burkin Assay in Myotubes, α7 integrin LacZ reporter signal relative to DMSO: 0.8415
[2]; 5 uM
  Burkin Assay in Myotubes, α7 integrin LacZ reporter signal relative to DMSO: 0.872
[2]; 10 uM
  Burkin Assay in Myotubes, α7 integrin LacZ reporter signal relative to DMSO: 0.9249
[2]; 20 uM
  Burkin Assay in Myotubes, α7 integrin LacZ reporter signal relative to DMSO: 1.029
[2]; 40 uM
  Burkin Assay in Myotubes, α7 integrin LacZ reporter signal relative to DMSO: 0.556
[3]; 5 uM
  CMV-LACZ in Myotubes, signal relative to DMSO: 1.092
[3]; 10 uM
  CMV-LACZ in Myotubes, signal relative to DMSO: 0.9804
[3]; 20 uM
  CMV-LACZ in Myotubes, signal relative to DMSO: 0.7733
[3]; 40 uM
  CMV-LACZ in Myotubes, signal relative to DMSO: 0.9509

## CCc1ccc(N(C(=O)c2snc(C(N)=O)c2N)C(C(=O)NC2CCCC2)c2ccco2)cc1 (stereo not shown) [MLS001216714-01]
[1]; Mus musculus, Myoblast, 48 h, 0.5 uM, read-out: Burkin Assay in Myoblasts, value relative to DMSO
  fold induction at 0.5 µM: 1.02
[1]; Mus musculus, Myoblast, 48 h, 1 uM, read-out: Burkin Assay in Myoblasts, value relative to DMSO
  fold induction at 1 µM: 0.971
[1]; Mus musculus, Myoblast, 48 h, 5 uM, read-out: Burkin Assay in Myoblasts, value relative to DMSO
  fold induction at 5 µM: 1.04
[1]; Mus musculus, Myoblast, 48 h, 10 uM, read-out: Burkin Assay in Myoblasts, value relative to DMSO
  fold induction at 10 µM: 1.14
[1]; Mus musculus, Myoblast, 48 h, 20 uM, read-out: Burkin Assay in Myoblasts, value relative to DMSO
  fold induction at 20 µM: 1.09
[1]; Mus musculus, Myoblast, 48 h, 40 uM, read-out: Burkin Assay in Myoblasts, value relative to DMSO
  fold induction at 40 µM: 0.274
[2]; Mus musculus, Myotube, 0.5 uM, read-out: Burkin Assay in Myotubes (signal relative to DMSO)
  fold induction at 0.5 µM: 1.03
[2]; Mus musculus, Myotube, 1 uM, read-out: Burkin Assay in Myotubes (signal relative to DMSO)
  fold induction at 1 µM: 1.17
[2]; Mus musculus, Myotube, 5 uM, read-out: Burkin Assay in Myotubes (signal relative to DMSO)
  fold induction at 5 µM: 1.1
[2]; Mus musculus, Myotube, 10 uM, read-out: Burkin Assay in Myotubes (signal relative to DMSO)
  fold induction at 10 µM: 1.32
[2]; Mus musculus, Myotube, 20 uM, read-out: Burkin Assay in Myotubes (signal relative to DMSO)
  fold induction at 20 µM: 0.706
[2]; Mus musculus, Myotube, 40 uM, read-out: Burkin Assay in Myotubes (signal relative to DMSO)
  fold induction at 40 µM: 0.677
[3]; 5 uM
  CMV-LACZ in Myotubes (β-galactosidase activity relative to DMSO): 0.9162
[3]; 10 uM
  CMV-LACZ in Myotubes (β-galactosidase activity relative to DMSO): 0.98
[3]; 20 uM
  CMV-LACZ in Myotubes (β-galactosidase activity relative to DMSO): 1.417
[3]; 40 uM
  CMV-LACZ in Myotubes (β-galactosidase activity relative to DMSO): 3.633
